The record followed here is PubChem BioAssay (NCI).

Assay in all cases: growth of human tumour cells (NCI), 48 h
Assay [1] relates to MOLT-4 leukemia.
For assay [2], the system named is NCI-H460 lung.
The test system of assay [3] is COLO 205 colon.
For assay [4], the system named is UACC-62 melanoma.
The test system of assay [5] is HOP-62 NSCLC.
In assay [6] the test system is HL-60(TB) leukemia.
In assay [7] the test system is UO-31 renal.
Assay [8] concerns OVCAR-8 ovarian.
Assay [9] has as its system TK-10 renal.
For assay [10], the system named is SK-MEL-2 melanoma.

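Results reflect a 48-hour exposure of cells in 96-well plates to compound at five concentrations. Here, GI50 denotes the concentration required for 50% inhibition of growth. TGI is the concentration that stops growth completely.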

Regarding `C=CCOc1ccccc1C1(O)c2ccccc2C2=NCCCN21` (centres undefined), the TGI in assay [1] is greater than 100 µM; in assay [2] it was greater than 100 µM; in assay [3] it was 78.9 µM; in assay [4], greater than 100 µM; in [5] it was 54.1 µM; in assay [6], 96.8 µM. Also, the TGI is greater than 100 µM in assay [7], 34.6 µM in assay [8] and greater than 100 µM in assay [9].

For `O=C(Nc1nnc(-c2c(Cl)c(Cl)c(Cl)c(Cl)c2-c2nc3cc(C(=O)c4ccccc4)ccc3[nH]2)o1)c1ccc(Cl)cc1`, the TGI was greater than 100 µM in assay [10]; greater than 100 µM in assay [1]; 35.1 µM in assay [3]; 67.5 µM in assay [5]; greater than 100 µM in assay [6]; greater than 100 µM in [7]. Besides, the TGI in assay [8] and in assay [9] was greater than 100 µM throughout.

On to `COc1ccc(-n2c(=O)n(-c3ccccc3)c(=O)n2-c2ccc(OC)cc2)cc1`, for which the TGI in [10], in assay [1], in assay [3], in [4], in assay [5] and in assay [6] was greater than 100 µM each time. Also, the TGI in assay [7], in assay [8] and in assay [9] was greater than 100 µM each time.

For the molecule `O=c1[nH]c(=O)n(C2CC(O)C(CO)O2)cc1C#Cc1ccc(F)cc1` (centres undefined), the TGI in assay [10], in assay [1], in assay [2], in [3], in assay [4] and in assay [5] was greater than 100 µM each time. In addition, the TGI in [7] and in assay [8] was greater than 100 µM in each case.

For `CC/C=C/C[C@H](O)[C@H]1C[C@H]2O[C@H](CC(=O)OC)C[C@H]2O1`, the TGI in assay [10], in [1], in assay [2], in assay [3], in assay [4] and in [5] was greater than 100 µM in each case. Also, the TGI in [6], in assay [7] and in assay [8] was greater than 100 µM in each case.

`COc1ccccc1NCc1cccc2c(=O)c3ccc(Cl)cc3oc12`: the TGI in assay [10] was greater than 100 µM; in assay [1] it was greater than 100 µM; in assay [3], greater than 100 µM; in assay [4], greater than 100 µM; in [5] it was greater than 100 µM; in assay [6], 64 µM. Also, the TGI in [7], in assay [8] and in assay [9] was greater than 100 µM each time.

For `N#Cc1c(-c2ccc(Cl)cc2)c2c(N=Nc3c(O)ccc4ccccc34)[nH]nc2[nH]c1=O`, the TGI in assay [10] came out at 0.943 µM; in assay [1], 1.34 µM; in assay [2], 0.851 µM; in assay [3] it was 2.66 µM; in [4] it was 0.324 µM; in assay [5] it was 1.82 µM. The figures for the TGI in [7], in assay [8] and in [9] were 1.05 µM, 1.21 µM and 1.8 µM, respectively.

`Cc1ccc2oc3c(c(Br)c(Br)n3C)c(=O)c2c1`: the TGI in assay [10] is 89 µM; in [1], greater than 100 µM; in assay [3] it was greater than 100 µM; in assay [4], 52.3 µM; in assay [5], 33.3 µM; in assay [6], greater than 100 µM. Besides, the TGI in assay [7] was determined as 27.5 µM; in [8] it was 31.9 µM; in [9], 38.9 µM.

For `COc1ccc2[nH]c3c(C)cc([N+](=O)[O-])c(C)c3c2c1`, the TGI in [10] is 46 µM; in assay [1], greater than 100 µM; in assay [2], 39.7 µM; in assay [3], greater than 100 µM; in assay [6] it was 50.4 µM; in [7], 71 µM. Besides, the figures for the TGI in [8] and in assay [9] were 79.9 µM and 76.5 µM, respectively.

For `NC(=Nc1cccc(Cl)c1)c1ccccc1N`, the TGI in [1], in assay [2], in [3], in assay [4], in [5] and in assay [6] was greater than 100 µM in each case. The TGI in assay [7], in [8] and in [9] was greater than 100 µM throughout.

`CO[C@@H]1C[C@H](OC(N)=O)[C@@H]2C=C[C@@H]3/C=C(C)/C=C/[C@@H](C)[C@H](/C(C)=C/[C@@H](C)NC(C)=O)OC(=O)/C=C/C=C(C)\C=C\[C@]3(C)[C@@H]2C1`: the TGI is 2.12 µM in assay [10]; 13.8 µM in assay [1]; 0.514 µM in assay [3]; 0.292 µM in assay [4]; 0.429 µM in assay [5]; 3.04 µM in [6]. Further, the TGI worked out at 0.111 µM in assay [7] and 50 µM in assay [8].

Turning to `S=C(N1CCN(c2cccc(Cl)c2)CC1)N1CCN(c2cccc(Cl)c2)CC1`, the TGI is greater than 100 µM in [10]; 64.1 µM in [1]; 68 µM in [3]; greater than 100 µM in assay [4]; greater than 100 µM in assay [5]; 86.1 µM in [7]. In addition, the TGI in assay [8] and in assay [9] was greater than 100 µM in each case.

For the molecule `COc1ccc(C2C3CCCC(C3=O)C(c3ccc(OC)cc3)N2N=O)cc1` (centres undefined), the TGI in assay [10] was 45.1 µM; in assay [1], greater than 61.6 µM; in assay [2] it was 42.2 µM; in [3] it was 42.3 µM; in assay [4] it was 97.4 µM; in [5], greater than 86.5 µM. Also, the figures for the TGI in assay [6], in assay [7] and in assay [8] were greater than 64 µM, greater than 100 µM and greater than 100 µM, respectively.

With `O=C(OC/C=C1C=C(OC(=O)c2ccccc2)/C(=N/N(C(=O)c2ccccc2)c2ccccc2)O\1)c1ccccc1`, the TGI was 27 µM in assay [10]; 14 µM in assay [1]; 20 µM in assay [2]; 37 µM in assay [5]; 2.29 µM in [6]; 0.517 µM in assay [7]. The TGI in assay [8] turned out to be 23.6 µM; in assay [9], 21.8 µM. Also, the GI50 in assay [5] is 18.8 µM; in assay [6] it was less than 0.01 µM.

In the case of `Cc1c(N2C(=O)/C(=C/c3ccc(N(CCC#N)CCC#N)cc3)N=C2c2ccccc2)c(=O)n(-c2ccccc2)n1C`, the TGI in assay [10], in assay [1], in [2], in [3], in [4] and in assay [5] was greater than 100 µM in each case. The TGI in assay [6], in assay [7] and in assay [8] was greater than 100 µM throughout.

For `NC(Cc1ncccn1)C(=O)O` (centres undefined), the TGI in assay [10], in [1], in assay [2], in assay [3], in [4] and in assay [5] was greater than 100 µM throughout. Further, the TGI in [7], in assay [8] and in assay [9] was greater than 100 µM in each case.

For `c1ccc2c(c1)ccn1ccc3c4ccccc4nc-3c21`, the TGI came to 2.54 µM in assay [10]; 0.415 µM in [1]; 1.13 µM in assay [3]; 3.81 µM in assay [4]; 1.85 µM in assay [5]; 1.36 µM in assay [6]. Also, the TGI in [7] stood at 2.24 µM; in [8] it was 1.78 µM; in assay [9], 4.34 µM.

Turning to `CCOC(=O)C(O)(C(=O)OCC)c1cc(C(C)(C)C)c(O)c(C(C)(C)C)c1`, the TGI in assay [10] was greater than 100 µM; in [1], greater than 100 µM; in assay [3], 90.1 µM; in assay [4] it was greater than 100 µM; in assay [5] it was greater than 100 µM; in [6] it was 98.2 µM. Besides, the TGI in assay [7], in assay [8] and in assay [9] was greater than 100 µM in each case.

With `O=C(Nc1sccc1S(=O)(=O)c1ccccc1)c1ccccc1`, the TGI in assay [10] was greater than 100 µM; in [1] it was greater than 100 µM; in assay [2], greater than 31.6 µM; in assay [3] it was greater than 100 µM; in assay [4], greater than 100 µM; in [5] it was greater than 100 µM. The TGI in assay [7], in assay [8] and in [9] was greater than 100 µM in each case.

As for `Nc1ccc(-c2nc3ccccc3s2)cc1C#Cc1ccccc1`, the TGI in [1] is greater than 100 µM; in [2], 35.1 µM; in [3], 31 µM; in assay [4], 33.9 µM; in assay [5], 28.2 µM; in assay [6], 62.1 µM. Also, the TGI came out at 36.7 µM in [7], 42.4 µM in assay [8] and 30.3 µM in [9].

On to `COc1nc2c(c(=O)n1C)N=C(c1ccc(Cl)cc1)CC(c1ccccc1)N2` (centres undefined), for which the TGI in assay [10] is 42.9 µM; in [1], 49.6 µM; in [2], 28.1 µM; in [3], greater than 100 µM; in assay [4], 37.6 µM; in assay [5], greater than 100 µM. Further, the TGI in assay [7] and in [8] was greater than 100 µM each time.

Regarding `CCn1c2ccccc2c2ccc(C3C(C(=O)OC)=C(C)NC(C)=C3C(=O)OC)cc21`, the TGI in assay [1], in assay [2], in assay [3], in assay [4], in assay [5] and in assay [6] was greater than 100 µM in each case. Besides, the TGI in assay [7], in [8] and in assay [9] was greater than 100 µM in each case.

Take `C(=Nc1ccc(-c2nc3ccccc3[nH]2)cc1)c1ccco1`: the TGI in [10], in assay [1], in assay [3], in assay [4], in [5] and in assay [6] was greater than 100 µM throughout. Besides, the TGI in [7], in assay [8] and in [9] was greater than 100 µM each time.

Turning to `COc1ccc2c3c1OC1C34CCN(C)C(C2)C4=CC(I)C1(OC)OC` (centres undefined), the TGI in [10] was 30.3 µM; in assay [1], 21.2 µM; in assay [2] it was 28 µM; in assay [3], 28.7 µM; in [4], 28 µM; in [5], 20.8 µM. Also, the TGI stood at 28.5 µM in assay [7], 16.1 µM in assay [8] and 27.8 µM in assay [9].

Regarding `CCCN(CCC)c1c([N+](=O)[O-])cc(C(=O)N(CCO)CCO)cc1[N+](=O)[O-]`, the TGI in assay [10], in [1], in [2], in [3], in [6] and in assay [7] was greater than 100 µM each time. The TGI in [8] and in assay [9] was greater than 100 µM each time.

Regarding `CCN(CC)c1ccc2cc(C(=O)Nc3ccc(C)cc3)c(=N)oc2c1`, the TGI in assay [10], in [1], in [2], in assay [3], in assay [4] and in assay [5] was greater than 100 µM in each case. Further, the TGI in assay [6] and in assay [8] was greater than 100 µM in each case.

Take `NC1Cc2ccccc2OC1=O` (centres undefined): the TGI in assay [10], in assay [1], in assay [2], in assay [3], in assay [4] and in assay [5] was greater than 100 µM each time. Moreover, the TGI in assay [7], in [8] and in assay [9] was greater than 100 µM throughout.

Consider `O=[N+]([O-])/C(C(Cl)=C(Cl)Cl)=C(\N1CCCCC1)n1nnc2ccccc21`, for which the TGI in assay [10] came out at 37.7 µM; in [1], 18.3 µM; in assay [2], 47.6 µM; in [3], 34.4 µM; in assay [4], 36.7 µM; in [5], 48.8 µM. Besides, the TGI in [7] is 34.3 µM; in assay [8] it was 42.6 µM; in assay [9], 35.5 µM.

`Cc1ccc2[nH]c3[nH]c(=S)[nH]c(=O)c3c2c1`: the TGI in assay [10], in assay [1], in [3], in assay [4], in [5] and in assay [6] was greater than 100 µM in each case. In addition, the TGI in assay [7], in assay [8] and in assay [9] was greater than 100 µM throughout.
